We go through 14 molecules from article PMC3796549 (PLoS ONE, 2013).

One experiment has as its target T1, human PTP1B (Homo sapiens, UniProt P18031).
T1 construct: made in house
T1 sequence (P18031 1-435): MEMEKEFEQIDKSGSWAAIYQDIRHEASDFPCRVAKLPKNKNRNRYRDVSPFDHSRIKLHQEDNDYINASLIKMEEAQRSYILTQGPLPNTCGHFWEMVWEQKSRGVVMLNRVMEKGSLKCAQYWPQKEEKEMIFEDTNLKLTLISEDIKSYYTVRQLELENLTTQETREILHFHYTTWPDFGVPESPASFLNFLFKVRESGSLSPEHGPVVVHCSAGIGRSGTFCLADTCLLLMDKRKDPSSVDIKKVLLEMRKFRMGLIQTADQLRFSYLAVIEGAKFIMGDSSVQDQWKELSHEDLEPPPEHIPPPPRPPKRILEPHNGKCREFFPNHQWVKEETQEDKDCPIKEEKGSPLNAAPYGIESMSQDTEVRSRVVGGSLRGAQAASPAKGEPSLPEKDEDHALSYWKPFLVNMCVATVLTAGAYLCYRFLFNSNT
The experiment is described as follows: biochemical. As to conditions: for IC50: pNPP substrate, mean ± SD, 3 experiments.

For experiment [1], the target named is T2, PtpB (Mycobacterium tuberculosis, UniProt P96830).
T2 construct: made in house
T2 sequence (P96830 1-276): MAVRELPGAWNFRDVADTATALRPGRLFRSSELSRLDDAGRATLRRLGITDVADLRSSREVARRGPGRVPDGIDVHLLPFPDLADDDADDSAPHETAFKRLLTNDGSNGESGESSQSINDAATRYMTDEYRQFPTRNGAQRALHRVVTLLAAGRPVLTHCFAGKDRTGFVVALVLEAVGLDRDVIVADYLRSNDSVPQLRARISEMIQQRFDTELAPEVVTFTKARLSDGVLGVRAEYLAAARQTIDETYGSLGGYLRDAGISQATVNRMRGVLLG
The experiment is described as follows: biochemical. As to conditions: for Ki: pNPP 0.2-12.8 mM, mean ± SD; for Type of inhibition: with respect to substrate pNPP.

The target in another experiment is T3, PtpB from Mtb (Mycobacterium tuberculosis, UniProt P96830).
T3 construct: made in house
T3 sequence (P96830 1-276): as above
The experiment is described as follows: biochemical. Type of experiment: biochemical.

Experiment [2] addresses T2, PtpB. The settings on record: 300 µM inhibitor, PtpB 5 µM, 3 hours 37 °C.
In another experiment the target is T4, trypsin (Sus scrofa, UniProt P00761).
T4 construct: purchased Promega
T4 sequence (P00761 9-231): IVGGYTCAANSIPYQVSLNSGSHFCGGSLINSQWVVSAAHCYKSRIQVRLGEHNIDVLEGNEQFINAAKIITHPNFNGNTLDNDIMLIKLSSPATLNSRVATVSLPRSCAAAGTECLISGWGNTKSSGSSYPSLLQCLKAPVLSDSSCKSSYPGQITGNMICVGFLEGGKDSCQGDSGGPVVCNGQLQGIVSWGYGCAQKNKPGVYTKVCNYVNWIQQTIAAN
Description: Inhibition of trypsin by the inhibitor itself. Type of experiment: biochemical.

The mark [3] stands for this setting: pNPP substrate, 37 °C, imidazole pH 7.0, mean ± SD, 3 experiments.

Like-named read-outs stand apart in the source and are kept apart here. Some results are limits rather than exact numbers.

Take `CC(C)=CCc1c(C)c(CC=C(C)C)c2c(c1O)C(=O)c1c(O)cc(O)c(CC=C(CO)CO)c1C2` [∆3, 1,3,8-trihydroxy-6-methyl-5,7-diprenyl-4-γ,γ’dihydroxyprenyl-anthrone]: at human PTP1B, the “SI (Selectivity index)” value amounted to 0.6 and inhibition was half-maximal at 14.7 ± 2.1 µM (IC50). Besides, at PtpB [1], the “IC50 / Ki” value came to 2.0; the affinity, expressed as Ki, was 13.4 ± 1.5 µM; the Type of inhibition result is listed as “Non-competitive”. In addition, the IC50 (commonly the concentration needed to halve the response being measured) against PtpB from Mtb (setting [3]) came out at 26.7 ± 0.6 µM.

Take `COc1c(C2COc3cc(O)c(CC=C(C)C)c(O)c3C2=O)ccc(O)c1CC=C(C)C` (centres unmarked) [M2, isosophoranone]: at PtpB from Mtb (setting [3]), the IC50 was 19.8 ± 2.3 µM.

For `COc1c(C2COc3cc(O)c(CCC(C)C)c(O)c3C2=O)ccc(O)c1CCC(C)C` (centres unmarked) [M2H, tetra-hydro-isosophoranone], the midpoint of inhibition on PtpB from Mtb (setting [3]), the IC50, lay at 69.4 ± 4.5 µM.

The molecule `O=C(/C=C/c1ccc(O)c(O)c1)O[C@@H]1C[C@@](OC(=O)/C=C/c2ccc(O)c(O)c2)(C(=O)O)C[C@@H](O)[C@@H]1O` [Cyn, cynarin] registered an IC50 against PtpB from Mtb (setting [3]) of more than 100 µM. At PtpB from Mtb (up to 100 µM), the “PtpB enzymatic inhibition (in words)” value is recorded as “not active”.

As to `COc1ccc(CCC(=O)c2c(O)cc(OC)c(CC=C(C)C)c2OC)cc1CC=C(C)CCC=C(C)C` [59-triMe, 4,2’,4’-trimethoxy-6’-hydroxy,3’-prenyl-3-geranyldihydrochalcone], the IC50 on PtpB from Mtb (setting [3]) is more than 100 µM.

On PtpB from Mtb (setting [3]), `C[N+](C)(C)CCc1c[nH]c2ccc(O)cc12.[I-]` [Buf-I, bufotenine CH3I] came in with an IC50 of more than 100 µM. The “PtpB enzymatic inhibition (in words)” value at PtpB from Mtb (up to 100 µM) is listed as “not active”.

Turning to `O[C@@H]1OC[C@H](Cc2ccc3c(c2)OCO3)[C@H]1Cc1ccc2c(c1)OCO2` [α-Cub, α-cubebin], the “PtpB enzymatic inhibition (in words)” value on PtpB from Mtb was “not active”. The same molecule showed an IC50 on PtpB from Mtb (pH 7) of more than 100 µM.

Take `COc1c(C)c(O)c2c(c1-c1c(OC)c(C)c(O)c3c1C(=O)c1cc(C)cc(O)c1C3=O)C(=O)c1cc(C)cc(O)c1C2=O` [compound 6016, trachypone]: at human PTP1B, the “SI (Selectivity index)” value was 0.4 and half-maximal inhibition (IC50) required 7.1 ± 1.4 µM. In addition, on PtpB [1], the “IC50 / Ki” value was determined as 1.7, the affinity corresponds to a Ki of 11.5 ± 1.7 µM and the Type of inhibition result is “Competitive”. This molecule showed an IC50 against PtpB from Mtb (setting [3]) of 19.2 ± 6.7 µM.

For the molecule `CC(C)=CCc1c(O)ccc(C(=O)[C@H]2[C@@H](c3c(O)cc(/C=C/c4ccc(O)cc4O)cc3O)C=C(C)C[C@@H]2c2ccc(O)cc2O)c1O` [KuwE, Kuwanol E], on human PTP1B, the “SI (Selectivity index)” value is listed as 5.1 and inhibition was half-maximal at 9.6 ± 2.6 µM (IC50). For the same molecule, on PtpB [2], the “Protection of PtpB catalytic site from proteolytic cleavage by trypsin (fragments m/z 1953 and m/z 2224)” value is “protecting it from the proteolytic cleavage by trypsin”. Moreover, on PtpB [1], the “IC50 / Ki” value came out at 1.2, affinity was put at a Ki of 1.6 ± 0.1 µM and the Type of inhibition entry was “Competitive”. Moreover, inhibition against PtpB from Mtb (setting [3]) was half-maximal at 1.9 ± 0.5 µM (IC50). Moreover, the Inhibition of trypsin entry at trypsin is “not able to inhibit trypsin”.

`COc1c(C)c(OC(C)=O)c2c(c1-c1c(OC)c(C)c(OC(C)=O)c3c1C(=O)c1cc(C)cc(OC(C)=O)c1C3=O)C(=O)c1cc(C)cc(OC(C)=O)c1C2=O` [Ac3, tetra-acetyl-trachypone]: on human PTP1B, the “SI (Selectivity index)” value is given as 0.9 and the IC50 came to 31.2 ± 2.7 µM. At PtpB [1], the “IC50 / Ki” value is listed as 1.9, the Ki (commonly the equilibrium dissociation constant of an inhibitor or competing ligand from its target) was 17.1 ± 4.5 µM and the Type of inhibition result is given as “Competitive”. The IC50 on PtpB from Mtb (setting [3]) was 33.2 ± 4.9 µM.

Turning to `CC(C)=CCC/C(C)=C/Cc1cc(CCC(=O)c2c(O)cc(O)c(CC=C(C)C)c2O)ccc1O` [Ega1, 4,2’,4’,6’-tetrahydroxy-3’-prenyl-3-geranyldihydrochalcone], at human PTP1B, the “SI (Selectivity index)” value amounted to 1.6 and inhibition was half-maximal at 20.9 ± 2.8 µM (IC50). Moreover, on PtpB [1], the “IC50 / Ki” value is 0.9; the affinity, expressed as Ki, was 14.5 ± 2.3 µM; the Type of inhibition result is listed as “Non-competitive”. On PtpB from Mtb (setting [3]), this molecule gave an IC50 of 13.4 ± 2.6 µM.

Consider `O=C(O)/C=C/c1ccc(OC2O[C@H](CO)[C@@H](O)[C@H](O)[C@H]2O)c(O)c1` (some centres unmarked) [Caf, 4-O-glucosyl caffeic acid], for which the IC50 against PtpB from Mtb (setting [3]) is more than 100 µM. In addition, at PtpB from Mtb (up to 100 µM), the “PtpB enzymatic inhibition (in words)” value is “not active”.

At PtpB from Mtb (setting [3]), `COc1ccc([C@@H]2CC(=O)c3c(O)cc(O[C@@H]4O[C@H](CO[C@@H]5O[C@@H](C)[C@H](O)[C@@H](O)[C@H]5O)[C@@H](O)[C@H](O)[C@H]4O)cc3O2)cc1O` [Hesp, hesperidin] showed an IC50 of more than 100 µM. Moreover, the “PtpB enzymatic inhibition (in words)” value on PtpB from Mtb (up to 100 µM) is “not active”.

Molecule `CC(C)=CCc1c(C)c(CC=C(C)C)c2c(c1O)C(=O)c1c(O)cc(O)c(CC=C(C)C)c1C2` [PirIII, 1,3,8-trihydroxy-6-methyl-4,5,7-triprenylanthrone] returned an IC50 against human PTP1B of 11.8 ± 3.5 µM. Moreover, at PtpB [1], the “IC50 / Ki” value is given as 0.8, the Ki is 6.6 ± 2.7 µM and the Type of inhibition result is recorded as “Non-competitive”. Further, the midpoint of inhibition against PtpB from Mtb (setting [3]), the IC50, lay at 5.4 ± 0.6 µM.
